How the values were obtained:
Assay type in all cases: cell-based, human
[1] = test system: H2AX; assay: H2AX phosphorylation after gemcitabine, Panc-1 cells; settings: control Panc-1 cells, gemcitabine 50 uM
Text: […] Top, flowcytometric analysis of γH2AX and propidium iodide staining of DNA content. […] Bottom, comparison of the total DNA content of the population (black) versus the γH2AX-positive fraction (green). Results are representative 3 separate experiments.

[2] = test system: ATDC; assay: ATDC phosphorylation in transfected HEK293 cells
Procedure: (B) Knockdown of ATM by specific ATM shRNA prevents IR induced phosphorylation of ATDC in Panc1 cells (n=3). (C) IR-dependent phosphorylation of ATDC occurs at serine 550. HEK 293 cells over-expressing wild type or S550A mutant ATDC were treated with IR (10 Gy) for varyin times (0-60 min). Cell lysates were harvested and co-immunoprecipitation experiments were performed using anti-ATDC and anti-phospho-serine/threonine antibodies. Results are representative of three separate experiments (D) Gemcitabine induces phosphorylation of ATDC in transfected HEK293 cells.
ATDC has overlapping function with ATM in cell cycle checkpoint activation and that trafficking of ATDC to DNA repair foci was dependent on ATM (see, e.g., FIGS. 4,6,7,8). ATDC had been shown previously to undergo phosphorylation on serine/threonine in A431 cells (see, e.g., Laderoute K R, et al., Int J Cancer 1996; 66: 772-778). It was hypothesized therefore that ATDC is a phosphorylation target of ATM and ATR. It is known that phosphorylation targets of ATM/ATR share a common motif, with either a serine or threonine residue, usually followed by a glutamine (the SQ or TQ motif) (see, e.g., Ziv Y, et al., Nature Cell Biol 2006; 8: 870-876). […] It was verified that ATDC functioned downstream of ATM, since silencing of ATDC had no effect on the phosphorylation of ATM in response to IR (FIG. 11A). […]

[3] = test system: ATDC; assay: ATDC nuclear foci by immunofluorescence after gemcitabine, Panc-1 cells; settings: gemcitabine (amount/time); 50 uM
Text: (A). Panc1 cells exposed to IR (5 Gy, 1 hr) were fixed and costained with anti-ATDC (red) and anti-γH2AX (green) antibodies. […] Cell nuclei were counterstained with DAPI (blue). (B) Panc-1 cells exposed to IR (5 Gy, 1 hr) and co-immunostained with anti-ATDC antibody (red) and anti-p-ATM antibody (green). Co-localization of ATDC (red) with p-ATM (green) is observed in yellow in the merged image. Experiments were repeated twice with similar results. […] Results representative of 3 separate experiments.
It has been well-documented that in response to DNA damage, numerous proteins involved in the DNA damage response traffic to discrete nuclear foci. […] Using double immunofluorescence staining, it was observed that ATDC co-localized with γH2AX (FIG. 7A), presumably at DNA damage foci. […] ATDC co-localized with ATR following gemcitabine treatment (FIG. 7B). The time course of ATDC localizing to DNA damage foci was similar to the time course of the formation of foci of phosphorylated H2AX. Whether ATDC is required for the formation of γH2AX and/or ATR foci in pancreatic cancer cells following gemcitabine was investigated.

[4] = test system: p53 and Chk1; assay: Phosphorylation of p53 and Chk1 in response to gemcitabine, Panc-1 cells; settings: gemcitabine 10 μM; control shRNA Panc-1 cells
Procedure: To further investigate the role of ATDC in the DNA damage response, the effect of silencing ATDC on phosphorylation of p53 and Chk1 was investigated. In response to gemcitabine (10 μM), replication forks stall and the ATR signaling cascade is activated, which phosphorylates and activates several proteins critical to inducing the G1-S cell cycle checkpoint, including p53 and Chk1 (see, e.g., Ljungman M, Mutation Res 2005; 577: 203-216).

Nc1ccn([C@@H]2O[C@H](CO)[C@@H](O)C2(F)F)c(=O)n1 [gemcitabine]
time of induction of H2AX phosphorylation [1]: ≤ 10 min | time of return of H2AX phosphorylation to basal levels [1]: 1 h | H2AX phosphorylation ([1]; x hours): transient H2AX phosphorylation | phosphorylation of ATDC [2]: induces | ATDC nuclear foci formation [3]: ATDC formed discrete nuclear foci | phosphorylation of p53 and Chk1 [4]: underwent phosphorylation

— patent US8088749B2, “Compositions and methods for treating cancer” (The Regents of the University of Michigan, priority 2007, dated 2012)
